{
  "source": "paper PMC6934184",
  "about": "“Selective DNA-PKcs inhibition extends the therapeutic index of localized radiotherapy and chemotherapy” (The Journal of Clinical Investigation, 2019)",
  "target": "T1, CDK14 (PFTK1)/cyclin Y (Homo sapiens, UniProt O94921)",
  "T1 construct": "purchased Thermo Fisher Scientific (Life Technologies) SelectScreen",
  "T1 sequence (O94921 whole entry)": "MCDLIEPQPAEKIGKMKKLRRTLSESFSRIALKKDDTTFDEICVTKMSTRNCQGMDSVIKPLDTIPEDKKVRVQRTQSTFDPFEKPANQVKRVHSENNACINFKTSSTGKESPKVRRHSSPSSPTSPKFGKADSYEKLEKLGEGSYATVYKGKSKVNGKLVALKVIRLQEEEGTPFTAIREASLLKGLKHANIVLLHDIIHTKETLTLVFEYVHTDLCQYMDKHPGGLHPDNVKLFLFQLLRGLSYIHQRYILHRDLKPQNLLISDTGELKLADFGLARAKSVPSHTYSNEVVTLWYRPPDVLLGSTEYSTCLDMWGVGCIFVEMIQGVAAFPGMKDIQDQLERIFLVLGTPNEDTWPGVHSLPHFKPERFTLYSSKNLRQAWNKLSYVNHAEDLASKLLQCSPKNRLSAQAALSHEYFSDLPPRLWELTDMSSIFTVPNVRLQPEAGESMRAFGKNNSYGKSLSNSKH",
  "T1 sequence (Q8ND76 whole entry partner)": "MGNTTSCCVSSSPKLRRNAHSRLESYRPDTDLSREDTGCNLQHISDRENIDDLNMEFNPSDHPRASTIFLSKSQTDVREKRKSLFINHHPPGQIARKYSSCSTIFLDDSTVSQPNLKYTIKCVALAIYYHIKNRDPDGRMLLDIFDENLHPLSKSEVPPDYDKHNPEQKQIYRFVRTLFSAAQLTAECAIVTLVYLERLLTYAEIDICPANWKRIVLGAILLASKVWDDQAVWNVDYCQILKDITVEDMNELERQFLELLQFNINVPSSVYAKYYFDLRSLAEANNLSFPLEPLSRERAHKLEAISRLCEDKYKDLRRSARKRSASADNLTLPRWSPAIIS",
  "experiment": "SelectScreen LanthaScreen",
  "assay_type": "binding",
  "settings": "1 µM",
  "procedure,_shortened": "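SelectScreen broad panel; activity (Z'LYTE, Adapta) plus binding formats. ATP: Km app for CSF1R Z'LYTE; 10 for CAMK1 Adapta. Readout = % per kinase.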",
  "data": [
    {"compound": "CN(C(=O)CN1CCOCC1)c1ccc2sc3c(-c4cccc5c(=O)cc(N6CC7CCC(C6)O7)oc45)cccc3c2c1", "note": "[NU5455]", "values": [
      {"measurement": "% displacement", "result": 5.1, "unit": "%"}
    ]}
  ]
}
